Test results from BindingDB's records for doi:10.1016/j.ejmech.2021.113704 (Fudan University, 2021).

Experiment: Agonist activity at RORgammat in mouse CD4+ T cells assessed as induction of Th17 cells differentiation by measuring increase in IL17 production measured after 4 days by intracellular staining based flow cytometry

SMILES: CCCN(Cc1ccc(NC(=O)Cc2ccc(S(C)(=O)=O)cc2)cc1Cl)CC1CCCCC1
- EC50: 37 nM
